Laboratory results reported in patent publication US10017506B2, “ATX modulating agents” (BIOGEN MA INC., priority 2012, dated 2018).

Biological target: T1, Human ATX protein (Homo sapiens, UniProt Q13822)
T1 construct: made in house
Experiment: ATX biochemical FRET assay with FS-3 substrate
Conditions: FRET substrate FS-3 2 μM, ATX 1.0 μg/mL, 30 minutes pre-incubation, 2 hours at room temperature; read-out: IC50
Outline: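 Enzyme at 1.0 μg/mL final, pre-incubated with compound (10-point, 3-fold series) for 30 min at RT in Tris pH 7.4 buffer with NaCl, KCl, CaCl2, MgCl2 and 1 mg/mL fatty-acid-free BSA. After FS-3 addition, 2 h at RT protected from light; fluorescence at 485/538 nm.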

IC50 [nM]	Structure (SMILES)
≤ 100	C[C@H](N[C@@H]1C[C@H](C(=O)O)C1(C)C)c1ccc2ccc(O[C@H]3CC[C@@H](C(F)(F)F)CC3)c(C(F)(F)F)c2c1 [Example 121b, (1S,3R)-2,2-dimethyl-3-(((S)-1-(8-(trifluoromethyl)-7-((cis-4-(trifluoromethyl)cyclohexyl)oxy)naphthalen-2-yl)ethyl)amino)cyclobutanecarboxylic acid]
≤ 100	CC[C@H]1CC[C@@H](Oc2ccc3ccc([C@H](C)N[C@H]4CC[C@@H](C(=O)O)CC4)cc3c2C(F)(F)F)CC1 [Example 135a, cis-4-(((S)-1-(7-((cis-4-ethylcyclohexyl)oxy)-8-(trifluoromethyl)naphthalen-2-yl)ethyl)amino)cyclohexanecarboxylic acid]
≤ 250	CC[C@H]1CC[C@@H](Oc2ccc3ccc([C@@H](C)N[C@H]4CC[C@@H](C(=O)O)CC4)cc3c2C(F)(F)F)CC1 [Example 135b, cis-4-(((R)-1-(7-((cis-4-ethylcyclohexyl)oxy)-8-(trifluoromethyl)naphthalen-2-yl)ethyl)amino)cyclohexanecarboxylic acid]
≤ 100	C[C@H](N[C@H]1CC[C@@H](C(=O)O)CC1)c1ccc2ccc(O[C@H]3CC[C@@H](C(F)(F)F)CC3)c(C(F)(F)F)c2c1 [Example 136a, cis-4-(((S)-1-(8-(trifluoromethyl)-7-((cis-4-(trifluoromethyl)cyclohexyl)oxy)naphthalen-2-yl)ethyl)amino)cyclohexanecarboxylic acid]
≤ 250	C[C@@H](N[C@H]1CC[C@@H](C(=O)O)CC1)c1ccc2ccc(O[C@H]3CC[C@@H](C(F)(F)F)CC3)c(C(F)(F)F)c2c1 [Example 136b, cis-4-(((R)-1-(8-(trifluoromethyl)-7-((cis-4-(trifluoromethyl)cyclohexyl)oxy)naphthalen-2-yl)ethyl)amino)cyclohexanecarboxylic acid]

More lines, now with the values behind:

Structure (SMILES)	IC50 [nM]
CC(N[C@H]1C[C@@H](C(=O)O)C1(C)C)c1ccc2ccc(O[C@H]3CC[C@@H](C(F)(F)F)CC3)c(C(F)(F)F)c2c1 (stereo partly drawn) [Example 120, (1R,3S)-2,2-dimethyl-3-((1-(8-(trifluoromethyl)-7-((cis-4-(trifluoromethyl)cyclohexyl)oxy)naphthalen-2-yl)ethyl)amino)cyclobutanecarboxylic acid]	≤ 100
O=C(O)C1CCCN(Cc2ccc3ccc(O[C@H]4CC[C@@H](C(F)(F)F)CC4)c(C(F)(F)F)c3c2)CC1 (stereo partly drawn) [Example 123, 1-((8-(trifluoromethyl)-7-((cis-4-(trifluoromethyl)cyclohexyl)oxy)naphthalen-2-yl)methyl)azepane-4-carboxylic acid]	≤ 250
O=C(O)[C@H]1CC[C@@H](NCc2ccc3ccc(O[C@H]4CC[C@@H](C(F)(F)F)CC4)c(C(F)(F)F)c3c2)CC1 [Example 124, cis-4-(((8-(trifluoromethyl)-7-((cis-4-(trifluoromethyl)cyclohexyl)oxy)naphthalen-2-yl)methyl)amino)cyclohexanecarboxylic acid]	≤ 250
O=C(O)[C@H]1CC[C@H](NCc2ccc3ccc(O[C@H]4CC[C@@H](C(F)(F)F)CC4)c(C(F)(F)F)c3c2)CC1 [Example 125, trans-4-(((8-(trifluoromethyl)-7-((cis-4-(trifluoromethyl)cyclohexyl)oxy)naphthalen-2-yl)methyl)amino)cyclohexanecarboxylic acid]	≤ 500
O=C(O)CC1CCC(NCc2ccc3ccc(O[C@H]4CC[C@@H](C(F)(F)F)CC4)c(C(F)(F)F)c3c2)CC1 (stereo partly drawn) [Example 126, 2-(4-(((8-(trifluoromethyl)-7-((cis-4-(trifluoromethyl)cyclohexyl)oxy)naphthalen-2-yl)methyl)amino)cyclohexyl)acetic acid]	≤ 500
O=C(O)C1CCC(NCc2ccc3ccc(O[C@H]4CC[C@@H](C(F)(F)F)CC4)c(C(F)(F)F)c3c2)C1 (stereo partly drawn) [Example 127, 3-(((8-(trifluoromethyl)-7-((cis-4-(trifluoromethyl)cyclohexyl)oxy)naphthalen-2-yl)methyl)amino)cyclopentanecarboxylic acid]	≤ 500
CC(N[C@H]1CC[C@@H](C(=O)O)CC1)c1ccc2ccc(O[C@H]3CC[C@@H](C(F)(F)F)CC3)c(C(F)(F)F)c2c1 (stereo partly drawn) [Example 129, cis-4-((1-(8-(trifluoromethyl)-7-((cis-4-(trifluoromethyl)cyclohexyl)oxy)naphthalen-2-yl)ethyl)amino)cyclohexanecarboxylic acid]	≤ 100
CC[C@H]1CC[C@@H](Oc2ccc3ccc(C(C)NC45CCC(C(=O)O)(CC4)C5)cc3c2C(F)(F)F)CC1 (stereo partly drawn) [Example 130, 4-((1-(7-((cis-4-ethylcyclohexyl)oxy)-8-(trifluoromethyl)naphthalen-2-yl)ethyl)amino)bicyclo[2.2.1]heptane-1-carboxylic acid]	≤ 250
CC[C@H]1CC[C@@H](Oc2ccc3ccc(C(C)NC4CCC(C(=O)O)C4)cc3c2C(F)(F)F)CC1 (stereo partly drawn) [Example 131, 3-((1-(7-((cis-4-ethylcyclohexyl)oxy)-8-(trifluoromethyl)naphthalen-2-yl)ethyl)amino)cyclopentanecarboxylic acid]	≤ 100
CC[C@H]1CC[C@@H](Oc2ccc3ccc(C(C)N[C@H]4CC[C@@H](C(=O)O)CC4)cc3c2C(F)(F)F)CC1 (stereo partly drawn) [Example 134, cis-4-((1-(7-((cis-4-ethylcyclohexyl)oxy)-8-(trifluoromethyl)naphthalen-2-yl)ethyl)amino)cyclohexanecarboxylic acid]	≤ 100
CC(N[C@H]1CC[C@@H](C(=O)O)CC1)c1ccc2ccc(O[C@H]3CC[C@@H](C)CC3)c(C(F)(F)F)c2c1 (stereo partly drawn) [Example 142, cis-4-((1-(7-((cis-4-methylcyclohexyl)oxy)-8-(trifluoromethyl)naphthalen-2-yl)ethyl)amino)cyclohexanecarboxylic acid]	≤ 100
CC(N[C@H]1CC[C@H](C(=O)O)CC1)c1ccc2ccc(O[C@H]3CC[C@@H](C(F)(F)F)CC3)c(C(F)(F)F)c2c1 (stereo partly drawn) [Example 143, trans-4-((1-(8-(trifluoromethyl)-7-((cis-4-(trifluoromethyl)cyclohexyl)oxy)naphthalen-2-yl)ethyl)amino)cyclohexanecarboxylic acid]	≤ 500

Same assay, conditions: IC50, FRET substrate FS-3 2 μM, ATX 1.0 μg/mL, 30 minutes pre-incubation, 2 hours at room temperature

Structure (SMILES)	IC50 [nM]
CC[C@H]1CC[C@@H](Oc2ccc3ccc(C(C)N4C5CCCC4CC(C(=O)OC)C5)cc3c2C(F)(F)F)CC1 (stereo partly drawn) [Example 132, methyl 9-(1-(7-((cis-4-ethylcyclohexyl)oxy)-8-(trifluoromethyl)naphthalen-2-yl)ethyl)-9-azabicyclo[3.3.1]nonane-3-carboxylate]	≤ 250
CC[C@H]1CC[C@@H](Oc2ccc3ccc([C@H](C)N4C5CCCC4CC(C(=O)O)C5)cc3c2C(F)(F)F)CC1 (stereo partly drawn) [Example 133a, 9-((S)-1-(7-((cis-4-ethylcyclohexyl)oxy)-8-(trifluoromethyl)naphthalen-2-yl)ethyl)-9-azabicyclo[3.3.1]nonane-3-carboxylic acid]	≤ 100
CC[C@H]1CC[C@@H](Oc2ccc3ccc([C@@H](C)N4C5CCCC4CC(C(=O)O)C5)cc3c2C(F)(F)F)CC1 (stereo partly drawn) [Example 133b, 9-((R)-1-(7-((cis-4-ethylcyclohexyl)oxy)-8-(trifluoromethyl)naphthalen-2-yl)ethyl)-9-azabicyclo[3.3.1]nonane-3-carboxylic acid]	≤ 250
C[C@@H](c1ccc2ccc(O[C@H]3CC[C@@H](C(F)(F)F)CC3)c(C(F)(F)F)c2c1)N1C2CCCC1CC(C(=O)O)C2 (stereo partly drawn) [Example 137a, 9-((S)-1-(8-(trifluoromethyl)-7-((cis-4-(trifluoromethyl)cyclohexyl)oxy)naphthalen-2-yl)ethyl)-9-azabicyclo[3.3.1]nonane-3-carboxylic acid]	≤ 100
C[C@H](c1ccc2ccc(O[C@H]3CC[C@@H](C(F)(F)F)CC3)c(C(F)(F)F)c2c1)N1C2CCCC1CC(C(=O)O)C2 (stereo partly drawn) [Example 137b, 9-((R)-1-(8-(trifluoromethyl)-7-((cis-4-(trifluoromethyl)cyclohexyl)oxy)naphthalen-2-yl)ethyl)-9-azabicyclo[3.3.1]nonane-3-carboxylic acid]	≤ 100
C[C@H]1CC[C@@H](Oc2ccc3cc(F)c(CN4C5CCCC4CC(C(=O)O)C5)cc3c2C(F)(F)F)CC1 (stereo partly drawn) [Example 138, 9-((3-fluoro-7-((cis-4-methylcyclohexyl)oxy)-8-(trifluoromethyl)naphthalen-2-yl)methyl)-9-azabicyclo[3.3.1]nonane-3-carboxylic acid]	≤ 250
CC(c1cc2c(C(F)(F)F)c(O[C@H]3CC[C@@H](C)CC3)ccc2cc1F)N1C2CCC1CC(C(=O)O)C2 (stereo partly drawn) [Example 139, 8-(1-(3-fluoro-7-((cis-4-methylcyclohexyl)oxy)-8-(trifluoromethyl)naphthalen-2-yl)ethyl)-8-azabicyclo[3.2.1]octane-3-carboxylic acid]	≤ 100
CC(c1cc2c(C(F)(F)F)c(O[C@H]3CC[C@@H](C(F)(F)F)CC3)ccc2cc1F)N1C2CCC1CC(C(=O)O)C2 (stereo partly drawn) [Example 140, 8-(1-(3-fluoro-8-(trifluoromethyl)-7-((cis-4-(trifluoromethyl)cyclohexyl)oxy)naphthalen-2-yl)ethyl)-8-azabicyclo[3.2.1]octane-3-carboxylic acid]	≤ 100
O=C(O)C1CC2CCC(C1)N2Cc1cc2c(C(F)(F)F)c(O[C@H]3CC[C@@H](C(F)(F)F)CC3)ccc2cc1F (stereo partly drawn) [Example 141, 8-((3-fluoro-8-(trifluoromethyl)-7-((cis-4-(trifluoromethyl)cyclohexyl)oxy)naphthalen-2-yl)methyl)-8-azabicyclo[3.2.1]octane-3-carboxylic acid]	≤ 100
CC[C@H]1CC[C@@H](Oc2ccc3ccc([C@H](C)N4C5CCC4CC(C(=O)O)C5)cc3c2C(F)(F)F)CC1 (stereo partly drawn) [Example 144a, 8-((S)-1-(7-((cis-4-ethylcyclohexyl)oxy)-8-(trifluoromethyl)naphthalen-2-yl)ethyl)-8-azabicyclo[3.2.1]octane-3-carboxylic acid]	≤ 500
